# In patent US12134610B2, “Somatostatin subtype-2 receptor (SST2R) targeted therapeutics and uses thereof” (priority 2022, dated 2024):
# Like-named read-outs stand apart in the source and are kept apart here. Starred links: 1 amine or outer side, 2 acyl side, 3 side chain; linkers in the order of their positions; H or OH if unused. Non-standard residues stand in square brackets, D forms with d. Residues, ends and D or L forms follow the SMILES beside them. *: point of attachment. X4 = Cc1cc(F)cc(-c2cnc(NCCNC(=O)CCOCCOCCOCCOCCC(=O)*)c(-c3nc4ccc(Cl)cc4[nH]3)c2N2CCC(N)CC2)c1; X1 = Cc1cc(F)cc(-c2cnc(NCCNC(=O)CCOCCC(=O)*)c(-c3nc4ccc(Cl)cc4[nH]3)c2N2CCC(N)CC2)c1; Dolaproine = CO[C@@H]([C@@H]1CCCN1)[C@@H](C)C(=O)O; Dil = CC[C@H](C)[C@H](NC)[C@@H](CC(=O)O)OC; PABC = O=C(OCc1ccc(N[*:1])cc1)[*:2]; X2 = C[C@@H](N*)[C@@H](O)c1ccccc1; Cya = N[C@@H](CS(=O)(=O)O)C(=O)O; dCya = N[C@H](CS(=O)(=O)O)C(=O)O; Cit = NC(=O)NCCC[C@H](N)C(=O)O; NMeV = CN[C@H](C(=O)O)C(C)C
# Legend:
# Type in all cases: cell-based
# [1] = test system: NCI-H524 (ATCC) human small cell lung cancer cells
# How it was run: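 CellTiter-Glo luminescence after a 2 h SMDC pulse (top dose 1 uM, 2-fold dilutions, 11 points), medium wash, then 70 h recovery. Cells were seeded at 5,000/well and dosed 24 h later. % inhibition vs control gave IC50 via four-parameter fit.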
# [2] = molecular target: T1, human somatostatin receptor subtype 2 (Homo sapiens, UniProt P30874); assay: Functional cAMP assay for SSTR2 agonists (HTRF) in CHO-K1 cells; conditions: CHO-K1 cells stably expressing human SST2, 20 min
# T1 construct: expressed in transfected cells
# How it was run: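 Agonism scored as loss of NKH477 (1.6 μM)-driven cAMP, with IBMX present, after 20 min, 37° C. exposure of stably transfected CHO-K1 cells to compound dilutions (typically 0-10,000 nM). Lysates read by time-resolved FRET; cAMP interpolated from standard curve and EC50 derived.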
# SST2 = molecular target: T2, SST2 (Homo sapiens, UniProt P30874); assay: PathHunter CHO-K1 SST2 internalization assay; conditions: PathHunter CHO-K1 SST2, 90 min
# T2 construct: host or cells: PathHunter CHO-K1 SST2 cells
# How it was run: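 IC50 comes from four-parameter curves on background-corrected duplicates of Beta-Glo luminescence, read after 60 min at room temperature in the dark. Before that, CHO-K1 SST2 internalization cells (48 h post-seeding) received SMDC as eleven threefold dilutions, 10 uM highest final, for 90 min at 37 C.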
# [3] = 2 h treatment, washout, additional 70 h, read-out: H524 EC50
# T1 sequence (P30874 whole entry): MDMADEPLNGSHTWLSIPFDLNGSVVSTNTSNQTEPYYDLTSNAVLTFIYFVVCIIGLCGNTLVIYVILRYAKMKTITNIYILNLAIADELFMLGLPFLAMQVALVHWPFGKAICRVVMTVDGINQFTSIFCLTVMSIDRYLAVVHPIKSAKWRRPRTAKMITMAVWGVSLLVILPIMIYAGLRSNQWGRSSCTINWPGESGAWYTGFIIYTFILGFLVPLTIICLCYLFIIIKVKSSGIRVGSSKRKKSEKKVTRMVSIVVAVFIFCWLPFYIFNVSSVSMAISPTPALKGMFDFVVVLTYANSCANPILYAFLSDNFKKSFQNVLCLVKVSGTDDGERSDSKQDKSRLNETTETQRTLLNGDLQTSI
# T2 sequence (P30874 whole entry): as above
Compound,EC50 ([1]; 2 h) [nM],EC50 ([2]; read-out: hSST2 cAMP Avg EC50) [nM],EC50 (SST2; read-out: Internalization EC50) [nM],"EC50 [1, 3] [nM]",EC50 ([2]; hSST2 cAMP Avg EC50 (nM)) [nM],EC50 (SST2; Internalization EC50 (nM)) [nM]
CC[C@H](C)[C@@H]([C@@H](CC(=O)N1CCC[C@H]1[C@H](OC)[C@@H](C)C(=O)N[C@H](C)[C@@H](O)c1ccccc1)OC)N(C)C(=O)[C@@H](NC(=O)[C@H](C(C)C)N(C)C(=O)OCc1ccc(NC(=O)[C@H](CCCNC(N)=O)NC(=O)[C@@H](NC(=O)[C@H](CCC(N)=O)NC(=O)CCOCCOCCOCCOCCC(=O)NCCNc2ncc(-c3cc(C)cc(F)c3)c(N3CCC(N)CC3)c2-c2nc3ccc(Cl)cc3[nH]2)C(C)C)cc1C(=O)NCCN)C(C)C [Compound 58],11,0.37,5,,,
CC[C@H](C)[C@@H]([C@@H](CC(=O)N1CCC[C@H]1[C@H](OC)[C@@H](C)C(=O)N[C@H](C)[C@@H](O)c1ccccc1)OC)N(C)C(=O)[C@H](C)NC(=O)[C@H](C(C)C)N(C)C(=O)OCc1ccc(NC(=O)[C@@H](NC(=O)[C@@H](NC(=O)CCN(C)CCC(=O)NCCNc2ncc(-c3cc(C)cc(F)c3)c(N3CCC(N)CC3)c2-c2nc3ccc(Cl)cc3[nH]2)C(C)C)C(C)C)c(O[C@@H]2O[C@H](C(=O)O)[C@@H](O)[C@H](O)[C@H]2O)c1 [Compound 154],29,0.16,25,,,
CC[C@H](C)[C@@H]([C@@H](CC(=O)N1CCC[C@H]1[C@H](OC)[C@@H](C)C(=O)N[C@H](C)[C@@H](O)c1ccccc1)OC)N(C)C(=O)[C@@H](NC(=O)[C@H](C(C)C)N(C)C(=O)OCc1ccc(NC(=O)[C@H](CCCNC(N)=O)NC(=O)[C@@H](NC(=O)[C@H](CS(=O)(=O)O)NC(=O)[C@H](CCC(=O)O)NC(=O)CCOCCOCCOCCOCCC(=O)NCCNc2ncc(-c3cc(C)cc(F)c3)c(N3CCC(N)CC3)c2-c2nc3ccc(Cl)cc3[nH]2)C(C)C)cc1)C(C)C [Compound 114] (X4-E[Cya]V[Cit][PABC][NMeV]V[Dil][Dolaproine]-X2),100,0.22,10,,,
CC[C@@]1(O)C(=O)OCc2c1cc1n(c2=O)Cc2c-1nc1cc(F)c(C)c3c1c2[C@@H](NC(=O)OCc1ccc(NC(=O)[C@H](C)NC(=O)[C@@H](NC(=O)CCOCCC(=O)NCCNc2ncc(-c4cc(C)cc(F)c4)c(N4CCC(N)CC4)c2-c2nc4ccc(Cl)cc4[nH]2)C(C)C)c(O[C@@H]2O[C@H](C(=O)O)[C@@H](O)[C@H](O)[C@H]2O)c1)CC3 [Compound 65],,,,250,0.27,1.5
CC[C@H](C)[C@@H]([C@@H](CC(=O)N1CCC[C@H]1[C@H](OC)[C@@H](C)C(=O)N[C@H](C)[C@@H](O)c1ccccc1)OC)N(C)C(=O)[C@@H](NC(=O)[C@H](C(C)C)N(C)C(=O)OCc1ccc(NC(=O)[C@H](CCCNC(N)=O)NC(=O)[C@@H](NC(=O)[C@@H](CCC(=O)O)NC(=O)[C@@H](CCC(=O)O)NC(=O)CCOCCC(=O)NCCNc2ncc(-c3cc(C)cc(F)c3)c(N3CCC(N)CC3)c2-c2nc3ccc(Cl)cc3[nH]2)C(C)C)cc1)C(C)C [Compound 103] (X1-[dE][dE]V[Cit][PABC][NMeV]V[Dil][Dolaproine]-X2),620,0.26,24,,,
CC[C@H](C)[C@@H]([C@@H](CC(=O)N1CCC[C@H]1[C@H](OC)[C@@H](C)C(=O)N[C@H](C)[C@@H](O)c1ccccc1)OC)N(C)C(=O)[C@@H](NC(=O)[C@H](C(C)C)N(C)C(=O)OCc1ccc(NC(=O)[C@H](CCCNC(N)=O)NC(=O)[C@@H](NC(=O)CCOCCC(=O)NCCNc2ncc(-c3cc(C)cc(F)c3)c(N3CCC(N)CC3)c2-c2nc3ccc(Cl)cc3[nH]2)C(C)C)cc1C(=O)NCCN)C(C)C [Compound 82],0.79,0.31,6,,,
CC[C@H](C)[C@@H]([C@@H](CC(=O)N1CCC[C@H]1[C@H](OC)[C@@H](C)C(=O)N[C@H](C)[C@@H](O)c1ccccc1)OC)N(C)C(=O)[C@@H](NC(=O)[C@H](C(C)C)N(C)C(=O)OCc1ccc(NC(=O)[C@H](CCCNC(N)=O)NC(=O)[C@@H](NC(=O)[C@H](CS(=O)(=O)O)NC(=O)CCOCCOCCOCCOCCC(=O)NCCNc2ncc(-c3cc(C)cc(F)c3)c(N3CCC(N)CC3)c2-c2nc3ccc(Cl)cc3[nH]2)C(C)C)cc1)C(C)C [Compound 45],32,0.12,21,,,
CC[C@H](C)[C@@H]([C@@H](CC(=O)N1CCC[C@H]1[C@H](OC)[C@@H](C)C(=O)N[C@H](C)[C@@H](O)c1ccccc1)OC)N(C)C(=O)[C@@H](NC(=O)[C@H](C(C)C)N(C)C(=O)OCc1ccc(NC(=O)[C@H](CCCNC(N)=O)NC(=O)[C@@H](NC(=O)[C@H](CC(=O)O)NC(=O)[C@H](CC(=O)O)NC(=O)[C@H](CC(=O)O)NC(=O)CCOCCC(=O)NCCNc2ncc(-c3cc(C)cc(F)c3)c(N3CCC(N)CC3)c2-c2nc3ccc(Cl)cc3[nH]2)C(C)C)cc1)C(C)C [Compound 108] (X1-DDDV[Cit][PABC][NMeV]V[Dil][Dolaproine]-X2),3300,1.9,53,,,
COc1cc2cc(c1Cl)N(C)C(=O)C[C@H](OC(=O)[C@H](C)N(C)C(=O)CCSSCCNC(=O)CCOCCNC(=O)C[C@@H](N)C(=O)NCCNc1ncc(-c3cc(C)cc(F)c3)c(N3CCC(N)CC3)c1-c1nc3ccc(Cl)cc3[nH]1)[C@]1(C)O[C@H]1[C@H](C)[C@@H]1C[C@@](O)(NC(=O)O1)[C@H](OC)/C=C/C=C(\C)C2 [Compound 77],17,0.21,5.2,,,
COc1cc2cc(c1Cl)N(C)C(=O)CC(OC(=O)[C@@H](C)N(C)C(=O)CCS[C@@H]1CC(=O)N(CC3CCC(C(=O)NCCCC[C@H](N)C(=O)NCCNc4ncc(-c5cc(C)cc(F)c5)c(N5CCC(N)CC5)c4-c4nc5ccc(Cl)cc5[nH]4)CC3)C1=O)[C@]1(C)OC1[C@@H](C)C1C[C@@](O)(NC(=O)O1)[C@H](OC)/C=C/C=C(\C)C2 (stereo partly drawn) [Compound 8],447,0.12,23.6,,,
CC[C@H](C)[C@@H]([C@@H](CC(=O)N1CCC[C@H]1[C@H](OC)[C@@H](C)C(=O)N[C@H](C)[C@@H](O)c1ccccc1)OC)N(C)C(=O)[C@@H](NC(=O)[C@H](C(C)C)N(C)C(=O)OCc1ccc(NC(=O)[C@H](CCCNC(N)=O)NC(=O)[C@@H](NC(=O)[C@@H](CS(=O)(=O)O)NC(=O)CCOCCC(=O)NCCNc2ncc(-c3cc(C)cc(F)c3)c(N3CCC(N)CC3)c2-c2nc3ccc(Cl)cc3[nH]2)C(C)C)cc1)C(C)C [Compound 104] (X1-[dCya]V[Cit][PABC][NMeV]V[Dil][Dolaproine]-X2),24,0.062,2.8,,,
CC[C@@]1(O)C(=O)OCc2c1cc1n(c2=O)Cc2c-1nc1cc(F)c(C)c3c1c2[C@@H](NC(=O)OCc1ccc(NC(=O)[C@H](CCCNC(N)=O)NC(=O)[C@@H](NC(=O)CCOCCC(=O)NCCNc2ncc(-c4cc(C)cc(F)c4)c(N4CCC(N)CC4)c2-c2nc4ccc(Cl)cc4[nH]2)C(C)C)cc1)CC3 [Compound 88],,,,55,0.3,1.3
CC[C@H](C)[C@@H]([C@@H](CC(=O)N1CCC[C@H]1[C@H](OC)[C@@H](C)C(=O)N[C@H](C)[C@@H](O)c1ccccc1)OC)N(C)C(=O)[C@@H](NC(=O)[C@H](C(C)C)N(C)C(=O)OCc1ccc(NC(=O)[C@H](CCCNC(N)=O)NC(=O)[C@@H](NC(=O)CCOCCOCCOCCOCCC(=O)NCCNc2ncc(-c3cc(C)cc(F)c3)c(N3CCC(N)CC3)c2-c2nc3ccc(Cl)cc3[nH]2)C(C)C)c(O[C@@H]2O[C@H](C(=O)O)[C@@H](O)[C@H](O)[C@H]2O)c1)C(C)C [Compound 62],61.2,0.2,14,,,
